Experiments:
rat [1] = conditions: Combined chronic toxicity/carcinogenicity; wistar; Oral; Feed; dose end: 2 year; group: systemic; systemic / clinical chemistry / alanine aminotransferase (alt/sgpt) / alanine aminotransferase (alt/sgpt) + systemic / clinical chemistry / …
mouse = conditions: Carcinogenicity, b6c3f1, Oral, Feed, dose end: 2 year, group: systemic
dog [2] = conditions: Subchronic oral toxicity in nonrodent, beagle, Feed, dose end: 90 day, group: systemic
dog [3] = conditions: Chronic toxicity, beagle, Oral, Feed, dose end: 12 month, group: systemic
rat [4] = conditions: Subchronic oral toxicity in rodents, wistar, Feed, dose end: 90 day, group: systemic
rat [5] = conditions: Prenatal developmental toxicity study, wistar, Oral, Gavage/Intubation, dose end: 15 GD
dog [6] = conditions: Chronic toxicity; beagle; Oral; Feed; dose end: 52 week; group: systemic; systemic / clinical chemistry / cholesterol / cholesterol + systemic / clinical chemistry / creatinine / creatinine + systemic / clinical …
dog [7] = conditions: Subchronic oral toxicity in nonrodent, beagle, [Not Specified], dose end: 4 week, group: systemic, systemic / clinical chemistry / alanine aminotransferase (alt/sgpt) / alanine aminotransferase (alt/sgpt) + systemic / clinical chemistry / …
rat [8] = conditions: Subchronic oral toxicity in rodents, wistar, Feed, dose end: 91 day, group: systemic, systemic / clinical chemistry / alanine aminotransferase (alt/sgpt) / alanine aminotransferase (alt/sgpt) + systemic / clinical chemistry / …
[9] = systemic / clinical chemistry / [other] / [other]
[10] = systemic / clinical chemistry / [other] / [other] + systemic / clinical chemistry / alanine aminotransferase (alt/sgpt) / alanine …
[11] = systemic / clinical chemistry / cholesterol / cholesterol + systemic / clinical chemistry / creatinine / creatinine + systemic / clinical …
[12] = systemic / pathology microscopic / pituitary gland / cyst
[13] = systemic / hematology / blood clotting / blood clotting - clotting time + systemic / organ weight / kidney / absolute + systemic / organ …
[14] = group: developmental, developmental / developmental malformation / bone / incomplete ossification + developmental / developmental malformation / bone / …
[15] = group: maternal, systemic / in life observation / body weight / body weight gain + systemic / in life observation / food consumption / food consumption + …

`Cc1cc(Cl)ccc1OCC(=O)O` [MCPA] showed an LEL (rat [1]) of 5.7 mg/kg/day, an LOAEL (rat [1]) of 5.7 mg/kg/day and an NEL (rat [1]) of 1.4 mg/kg/day. For the same molecule, the NOAEL (rat [1]) was 1.4 mg/kg/day, the LEL (mouse; systemic / in life observation / body weight / body weight) was 15.7 mg/kg/day and the NEL (mouse; systemic / in life observation / body weight / body weight + systemic / pathology microscopic / kidney / casts protein + systemic / …) was 3.2 mg/kg/day. It also gave an LOAEL (mouse; systemic / pathology microscopic / kidney / hyperplasia) of 19.5 mg/kg/day, an NOAEL (mouse; systemic / pathology microscopic / kidney / hyperplasia + systemic / in life observation / body weight / body weight + systemic / organ …) of 3.9 mg/kg/day and an LEL (dog [2]; [9]) of 3 mg/kg/day. It also gave an LOAEL (dog [2]; [9]) of 3 mg/kg/day, an NEL (dog [2]; [10]) of 1 mg/kg/day and an NOAEL (dog [2]; [10]) of 1 mg/kg/day. The LOAEL (dog [3]; [11]) was 1.02 mg/kg/day, the NOAEL (dog [3]; [11]) was 0.21 mg/kg/day and the LEL (dog [3]; [12]) was 0.2 mg/kg/day. For the same molecule, the NEL (dog [3]; [12]) was < 0.2 mg/kg/day, the LOAEL (rat [4]; [13]) was 32.6 mg/kg/day and the NEL (rat [4]; [13]) was 3.6 mg/kg/day. For the same molecule, the NOAEL (rat [4]; [13]) was 10.9 mg/kg/day, the LEL (rat [4]; systemic / organ weight / kidney / absolute) was 10.9 mg/kg/day and the LEL (rat [5]; [14]) was 120 mg/kg/day. It also gave an LOAEL (rat [5]; [14]) of 120 mg/kg/day, an NEL (rat [5]; [14]) of 60 mg/kg/day and an NOAEL (rat [5]; [14]) of 60 mg/kg/day. The LEL (rat [5]; [15]) was 120 mg/kg/day, the LOAEL (rat [5]; [15]) was 120 mg/kg/day and the NEL (rat [5]; [15]) was 60 mg/kg/day. It also gave an NOAEL (rat [5]; [15]) of 60 mg/kg/day, an LEL (dog [6]) of 1.02 mg/kg/day and an LOAEL (dog [6]) of 1.02 mg/kg/day. The NEL (dog [6]) was 0.21 mg/kg/day, the NOAEL (dog [6]) was 0.21 mg/kg/day and the LEL (dog [7]) was 8 mg/kg/day. The LOAEL (dog [7]) was 8 mg/kg/day, the NEL (dog [7]) was < 8 mg/kg/day and the NOAEL (dog [7]) was < 8 mg/kg/day. The LEL (rat [8]) was 177 mg/kg/day, the LOAEL (rat [8]) was 177 mg/kg/day and the NEL (rat [8]) was 34 mg/kg/day. The NOAEL (rat [8]) was 34 mg/kg/day.
